Results taken from US20230019491A1, “PYRIMIDINE TBK/IKKe INHIBITOR COMPOUNDS AND USES THEREOF” (Merck Patent GmbH, priority 2017, published 2023).

Key:
TBK1 = target: T1, TBK1 (Homo sapiens, UniProt Q9UHD2); experiment: TBK biochemical assay; settings: 10 point 1:4 dose response, 30 uM top concentration, 90 min at 25° C., LabChip EZ Reader II; read-out: TBK1_IC50
T1 sequence (Q9UHD2 1-729): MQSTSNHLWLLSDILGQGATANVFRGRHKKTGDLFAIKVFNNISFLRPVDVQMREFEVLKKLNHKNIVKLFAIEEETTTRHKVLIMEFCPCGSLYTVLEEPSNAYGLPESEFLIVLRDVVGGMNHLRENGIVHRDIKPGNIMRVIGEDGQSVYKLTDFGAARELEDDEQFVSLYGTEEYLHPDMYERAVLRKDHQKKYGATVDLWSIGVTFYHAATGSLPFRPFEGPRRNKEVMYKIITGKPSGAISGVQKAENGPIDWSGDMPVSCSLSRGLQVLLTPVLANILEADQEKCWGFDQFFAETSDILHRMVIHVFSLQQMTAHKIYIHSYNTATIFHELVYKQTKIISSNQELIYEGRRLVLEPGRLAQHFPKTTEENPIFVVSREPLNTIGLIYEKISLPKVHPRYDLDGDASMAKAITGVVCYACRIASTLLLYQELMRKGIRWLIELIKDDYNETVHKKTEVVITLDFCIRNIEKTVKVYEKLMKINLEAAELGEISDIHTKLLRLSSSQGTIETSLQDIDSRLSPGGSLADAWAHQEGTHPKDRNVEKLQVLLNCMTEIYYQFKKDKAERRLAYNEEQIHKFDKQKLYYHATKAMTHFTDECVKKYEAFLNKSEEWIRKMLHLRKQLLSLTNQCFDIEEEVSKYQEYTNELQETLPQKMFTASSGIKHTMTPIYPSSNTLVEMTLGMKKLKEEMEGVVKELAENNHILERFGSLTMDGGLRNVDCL
Summary of the method: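 Substrate and product were separated and quantified by microfluidic mobility-shift read (LabChip). 10 uM staurosporine served as the full-inhibition control, and the reference compound was tested from 1 uM final.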

IKKε = target: T2, IKKε (Homo sapiens, UniProt Q14164); experiment: IKKε biochemical assay; settings: 10 point 1:4 dose response, 30 uM top concentration, 90 min at 25° C., LabChip EZ Reader II; read-out: IKKε_IC50
T2 sequence (Q14164 1-716): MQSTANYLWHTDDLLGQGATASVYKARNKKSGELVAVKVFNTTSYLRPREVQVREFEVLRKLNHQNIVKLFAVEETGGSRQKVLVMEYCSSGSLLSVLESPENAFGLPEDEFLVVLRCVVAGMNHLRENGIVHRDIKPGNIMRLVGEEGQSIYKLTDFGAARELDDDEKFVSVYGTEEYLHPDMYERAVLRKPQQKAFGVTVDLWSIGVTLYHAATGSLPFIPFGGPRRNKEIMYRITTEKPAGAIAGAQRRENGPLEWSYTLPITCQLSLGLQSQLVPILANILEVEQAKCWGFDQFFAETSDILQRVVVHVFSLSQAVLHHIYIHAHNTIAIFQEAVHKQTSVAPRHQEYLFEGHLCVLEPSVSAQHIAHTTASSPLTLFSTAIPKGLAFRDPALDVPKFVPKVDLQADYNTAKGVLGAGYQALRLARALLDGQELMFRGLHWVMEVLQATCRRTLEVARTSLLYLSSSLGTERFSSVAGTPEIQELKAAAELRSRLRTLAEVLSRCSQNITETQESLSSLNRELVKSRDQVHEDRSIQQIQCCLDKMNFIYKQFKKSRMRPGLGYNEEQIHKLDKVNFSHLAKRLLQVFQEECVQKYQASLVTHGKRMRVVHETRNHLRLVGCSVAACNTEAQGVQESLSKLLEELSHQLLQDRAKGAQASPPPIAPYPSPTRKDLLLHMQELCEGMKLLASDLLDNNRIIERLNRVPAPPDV
Summary of the method: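 Compounds in 1% DMSO final were incubated with IKKε enzyme and substrate at 25° C. for 90 min, then stopped. Substrate and product peaks were resolved by LabChip EZ Reader II mobility-shift read-out. Staurosporine at 10 uM final served as the full-inhibition control.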

SMILES	IC50 (TBK1)	IC50 (IKKε)
COc1nc(Nc2nccc(-c3ccc(OC4CNC4)c(C#N)c3)n2)ccc1N1CCN(C2COC2)CC1 [Example 174, 2-(azetidin-3-yloxy)-5-[2-([6-methoxy-5-[4-(oxetan-3-yl)piperazin-1-yl]pyridin-2-yl]amino)pyrimidin-4-yl]benzonitrile]	< 0.1 µM	< 0.1 µM
COc1nc(Nc2nccc(-c3ccc(OC4CCN(C(=O)[C@H](C)OC)CC4(F)F)c(C#N)c3)n2)ccc1N1CCN(C2COC2)CC1 (stereo partly drawn) [Example 246, 2-[3,3-Difluoro-1-((S)-2-methoxy-propionyl)-piperidin-4-yloxy]-5-{2-[6-methoxy-5-(4-oxetan-3-yl-piperazin-1-yl)-pyridin-2-ylamino]-pyrimidin-4-yl}-benzonitrile]	< 0.1 µM	< 0.1 µM
C[C@H](O)C(=O)N1CCC(Oc2ccc(-c3nc(Nc4ccc(N5CCN(C6COC6)CC5)cc4)ncc3F)cc2C#N)C(F)(F)C1 (stereo partly drawn) [Example 300, 2-({3,3-difluoro-1-[(2S)-2-hydroxypropanoyl]piperidin-4-yl}oxy)-5-[5-fluoro-2-({4-[4-(oxetan-3-yl)piperazin-1-yl]phenyl}amino)pyrimidin-4-yl]benzonitrile]	< 0.1 µM	< 0.1 µM
COc1cc(Nc2nccc(-c3ccc(OC4CCOCC4)c(C#N)n3)n2)ncc1C(=O)N(C)C [Example 24, 6-([4-[6-cyano-5-(oxan-4-yloxy)pyridin-2-yl]pyrimidin-2-yl]amino)-4-methoxy-N,N-dimethylpyridine-3-carboxamide]	0.1 to 1 µM	0.1 to 1 µM
N#Cc1cc(-c2ccnc(Nc3cccc(C4CCN(C(CO)CO)CC4)c3)n2)ccc1OC1CCNCC1(F)F (centres unmarked) [Example 156, 2-(3,3-Difluoro-piperidin-4-yloxy)-5-(2-{3-[1-(2-hydroxy-1-hydroxymethyl-ethyl)-piperidin-4-yl]-phenylamino}-pyrimidin-4-yl)-benzonitrile]	< 0.1 µM	< 0.1 µM
COc1nc(Nc2nccc(-c3ccc(OC4CCN(C(=O)[C@H](C)O)CC4C)c(C#N)c3)n2)ccc1N1CCN(C2COC2)CC1 (stereo partly drawn) [Example 271, 2-[1-((S)-2-Hydroxy-propionyl)-3-methyl-piperidin-4-yloxy]-5-{2-[6-methoxy-5-(4-oxetan-3-yl-piperazin-1-yl)-pyridin-2-ylamino]-pyrimidin-4-yl}-benzonitrile]	< 0.1 µM	< 0.1 µM
C[C@H](O)C(=O)N1CCC(Oc2ccc(-c3ccnc(Nc4cccc(C5CCN(C6COC6)CC5)c4)n3)cc2C#N)C(F)(F)C1 (stereo partly drawn) [Example 224, 2-[3,3-Difluoro-1-((S)-2-hydroxy-propionyl)-piperidin-4-yloxy]-5-{2-[3-(1-oxetan-3-yl-piperidin-4-yl)-phenylamino]-pyrimidin-4-yl}-benzonitrile]	< 0.1 µM	< 0.1 µM
COc1nc(Nc2nccc(-c3ccc(OC4CCN(C(=O)[C@H](C)O)CC4(F)F)c(C#N)c3)n2)ccc1N1CCN(C)CC1 (stereo partly drawn) [Example 107, 2-[3,3-Difluoro-1-((S)-2-hydroxy-propionyl)-piperidin-4-yloxy]-5-{2-[6-methoxy-5-(4-methyl-piperazin-1-yl)-pyridin-2-ylamino]-pyrimidin-4-yl}-benzonitrile]	< 0.1 µM	< 0.1 µM
C[C@@H](O)C(=O)N1CCC(Oc2ccc(-c3ccnc(Nc4cccc(C5CCN(C(CO)CO)CC5)c4)n3)cc2C#N)C(F)(F)C1 (stereo partly drawn) [Example 158, 2-[3,3-Difluoro-1-((R)-2-hydroxy-propionyl)-piperidin-4-yloxy]-5-(2-{3-[1-(2-hydroxy-1-hydroxymethyl-ethyl)-piperidin-4-yl]-phenylamino}-pyrimidin-4-yl)-benzonitrile]	< 0.1 µM	< 0.1 µM
COc1nc(Nc2nccc(-c3ccc(O[C@@H]4CCN(C(=O)[C@H](C)O)C[C@H]4F)c(C#N)c3)n2)ccc1N1CCN(C2COC2)CC1 [Example 202, 2-[(3R,4R)-3-Fluoro-1-((S)-2-hydroxy-propionyl)-piperidin-4-yloxy]-5-{2-[6-methoxy-5-(4-oxetan-3-yl-piperazin-1-yl)-pyridin-2-ylamino]-pyrimidin-4-yl}-benzonitrile]	< 0.1 µM	< 0.1 µM
COc1nc(Nc2nccc(-c3ccc(OC4CCOCC4)c(C#N)c3)n2)ccc1C(=O)N(C)C [Example 1, 6-([4-[3-cyano-4-(oxan-4-yloxy)phenyl]pyrimidin-2-yl]amino)-2-methoxy-N,N-dimethylpyridine-3-carboxamide]	< 0.1 µM	< 0.1 µM
C[C@@H](O)C(=O)N1CCC(Oc2ccc(-c3ccnc(Nc4cccnc4)n3)cc2C#N)C(F)(F)C1 (stereo partly drawn) [Example 206, 2-([33-difluoro-1-[(2R)-2-hydroxypropanoyl]piperidin-4-yl]oxy)-5-[2-[(pyridin-3-yl)amino]pyrimidin-4-yl]benzonitrile]	< 0.1 µM	< 0.1 µM
COc1nc(Nc2nccc(-c3ccc(OC4CN(C(=O)[C@H](C)O)C4)c(C#N)c3)n2)ccc1N1CCN(C2COC2)CC1 [Example 175, 2-([1-[(2S)-2-hydroxypropanoyl]azetidin-3-yl]oxy)-5-[2-([6-methoxy-5-[4-(oxetan-3-yl)piperazin-1-yl]pyridin-2-yl]amino)pyrimidin-4-yl]benzonitrile]	0.1 to 1 µM	0.1 to 1 µM
COc1nc(Nc2nccc(-c3ccc(OC4(C)CCN(C(=O)[C@H](C)O)CC4)c(C#N)c3)n2)ccc1N1CCN(C2COC2)CC1 [Example 268, 2-[1-((S)-2-Hydroxy-propionyl)-4-methyl-piperidin-4-yloxy]-5-{2-[6-methoxy-5-(4-oxetan-3-yl-piperazin-1-yl)-pyridin-2-ylamino]-pyrimidin-4-yl}-benzonitrile]	< 0.1 µM	0.1 to 1 µM
CN1CCN(c2ccc(Nc3nccc(-c4ccc(O[C@H]5CCN(C)C[C@H]5F)c(C#N)c4)n3)nc2)CC1 [Example 84, 2-[[(3R,4S)-3-fluoro-1-methylpiperidin-4-yl]oxy]-5-(2-[[5-(4-methylpiperazin-1-yl)pyridin-2-yl]amino]pyrimidin-4-yl)benzonitrile]	0.1 to 1 µM	< 0.1 µM
Cc1nc(C(=O)N2CCC(Oc3ccc(-c4ccnc(Nc5ccc(N6CCN(C7COC7)CC6)cc5)n4)cc3C#N)CC2)c[nH]1 [Example 274, 2-[[1-(2-methyl-1H-imidazole-4-carbonyl)piperidin-4-yl]oxy]-5-[2-([4-[4-(oxetan-3-yl)piperazin-1-yl]phenyl]amino)pyrimidin-4-yl]benzonitrile]	< 0.1 µM	< 0.1 µM
COc1nc(Nc2nccc(-c3ccc(OC4CCOCC4)c(C#N)c3)n2)ccc1N1C[C@@H](C)N(C)[C@@H](C)C1 [Example 36, 5-[2-([6-methoxy-5-[cis-3,4,5-trimethylpiperazin-1-yl]pyridin-2-yl]amino)pyrimidin-4-yl]-2-(oxan-4-yloxy)benzonitrile]	< 0.1 µM	< 0.1 µM
CN(C)C(=O)c1ccc(Nc2nccc(-c3ccc(OC4CCOCC4)c(C#N)n3)n2)nc1 [Example 27, 6-([4-[6-cyano-5-(oxan-4-yloxy)pyridin-2-yl]pyrimidin-2-yl]amino)-N,N-dimethylpyridine-3-carboxamide]	0.1 to 1 µM	0.1 to 1 µM
COc1nc(Nc2nccc(-c3ccc(OC4CCOCC4)c(C#N)c3)n2)ccc1C(=O)NC1CCN(C)CC1 [Example 14, 6-([4-[3-cyano-4-(oxan-4-yloxy)phenyl]pyrimidin-2-yl]amino)-2-methoxy-N-(1-methylpiperidin-4-yl)pyridine-3-carboxamide]	< 0.1 µM	< 0.1 µM
